Source: patent US20110110916A1, “METHODS FOR TREATING AND/OR PREVENTING CARDIOMYOPATHIES BY ERK OR JNK INHIBITION” (priority 2008, published 2011)

Legend:
Assay type in all cases: in vivo, mouse
Lmna^H222P/H222P mice [1] = settings: for development of LV dilatation: echocardiography (PD98059 also histopathology); for EF / FS / IVSD / LVEDD / LVESD / LVPW: Lmna^H222P/H222P mice at 16 weeks of age, i.p. 5 days a week from 8 to 16 weeks (PD98059, SP600125 3 mg/kg/day), means ± standard deviations
Experimental: PD98059 (Calbiochem) and SP600125 (Calbiochem) were dissolved in Dimethyl Sulfoxide (DMSO, Sigma) at a concentration of 0.5 mg/ml and were delivered to a dose of 3 mg/kg/day for 5 days a week. […] The placebo control consisted of DMSO alone. Placebo and inhibitors were administered by intraperitoneal injection using a 27G^5/8 syringe. Treatment was started when mice were 8 weeks of age and continued until 16 weeks of age.
Lmna H222P knock-in mice were generated and genotyped as described (14). […] Lmna^H222P/H222P mice were separated by sex and were given either vehicle alone (DMSO), the MEK inhibitor PD98059 alone, the JNK inhibitor SP600125 alone, both PD98059 and SP600125 together, the MEK inhibitor U0126 alone, or the MEK inhibitor MEK1/2 alone. All the mice were fed on a chow diet and housed in a barrier facility. The Institutional Animal Care and Use Committee at Columbia University Medical Center approved the use of animals in the study protocol.
Cardiac function was assessed by echocardiography with a Visualsonics Vevo 770 ultrasound with a 30-MHz transducer applied to the chest wall. Cardiac ventricular dimensions and ejection fraction were measured in 2D-mode and M-mode three times for the number of animals indicated. A “blinded” echocardiographer, unaware of the genotype or treatment, performed the examinations.
We administered PD98059, at a dose of 3 mg/kg/day or 6 mg/kg/day, or placebo (dimethylsulfoxide; DMSO) by intraperitoneal injection 5 days a week to male homozygous Lmna mutant mice (Lmna^H222P/H222P). […] PD98059 mediates its inhibitory properties by binding to MEK, therefore preventing phosphorylation of ERK1/2.
Treatment was initiated at 8 weeks of age and continued until the mice were 16 weeks of age. At 16 weeks of age, the mice were analyzed by echocardiography and then sacrificed for histological and biochemical studies. Untreated male Lmna^+/+ and Lmna^H222P/H222P mice were similarly analyzed for comparisons.

JNK = assay: Immunoblot of phosphorylated JNK versus total JNK in hearts of treated mice; settings: for phosphorylation of JNK / JNK signaling in heart: treated 8 to 16 weeks of age, 3 mg/kg/day i.p.
Experimental: Hearts were excised from mice at 16-weeks of age and were homogenized in RIPA extraction buffer (Cell Signalling) containing protease inhibitors (25 […]). Protein samples were subjected to SDS-PAGE, transferred to nitrocellulose membranes and blotted with primary antibodies against ERK1/2 (Santa-Cruz), phosphorylated ERK1/2 (Cell Signaling), JNK (Santa-Cruz), natriuretic peptide precursor A (Santa-Cruz), phosphorylated JNK (Cell Signaling), and Gapdh (Ambion). Secondary antibodies were HRP-conjugated (Amersham). Recognized proteins were visualized by enhanced chemiluminescence (ECL, Amersham). The signal generated using an antibody against Gapdh was used as internal controls to normalize the amounts of protein between immunoblots.
Proteins were loaded on 10% SDS gels and electrotransferred on a […] pore size nitrocellulose membrane (Invitrogen). We used antibodies directed against phosphorylated ERK1/2 (Cell Signaling, 1:1,000), total ERK1/2 (Santa Cruz, 1:2,000), phosphorylated JNK (Cell Signaling, 1:1,000) and total JNK (Santa Cruz, 1:200). The secondary antibodies were coupled to horseradish-peroxydase (Amersham). Recognized proteins were visualized by enhanced chemiluminescence (SuperSignal® West Pico chemiluminescent substrate, Thermo Scientific).

[2] = test system: hearts from Lmna^H222P/H222P mice; assay: Histopathological analysis of hearts (left ventricle, cardiomyocyte nuclear length); settings: for mean lengths of nuclei in cardiomyocytes compared to the DMSO-treated group: 20 weeks of age, treated 16 to 20 weeks
Experimental: Mice were sacrificed at 16 weeks of age and freshly removed hearts were fixed in 4% formaldehyde for 48 hours, embedded in paraffin, sectioned at […] and stained with hematoxylin and eosin and Masson's trichrome. Representative stained sections were photographed using a Microphot SA (Nikon) light microscope attached to a Spot RT Slide camera (Diagnostic Instruments). Images were processed using Adobe Photoshop 6.0 (Adobe Systems). Length of cardiomyocytes was measured using Scion Image software (Scion Corporation). Data were reported as means±standard deviations and are compared with respective controls using a two-tailed t test.
(§1) Mice were sacrificed at 20 weeks of age, and freshly removed hearts were fixed in 4% formaldehyde for 48 hours, embedded in paraffin, sectioned at 5 μm and stained with hematoxylin, eosin and Gomori's trichrome and Syrius Red. Representative stained sections were photographed using a Microphot SA (Nikon) light microscope attached to a Spot RT Slide camera (Diagnostic Instruments) with a 10× objective. Images were processed using Adobe Photoshop CS (Adobe Systems).

[3] = test system: hearts from Lmna^H222P/H222P mice; assay: Quantification of myocardial fibrotic area (Gomori's trichrome); settings: 20 weeks of age; 3 mg/kg/day from 16 to 20 weeks; DMSO 15.01±0.9%
Text: Later-stage cardiomyopathy caused by LMNA mutations is characterized by myocardial fibrosis. […] We quantified the myocardial fibrotic area of each animal by determining the ratio of fibrotic tissue (blue stained with Gomori's trichrome) to the total tissue area in each micrograph (FIG. 8B). Hearts from DMSO-treated Lmna^H222P/H222P mice had 20.93%±2.45% fibrotic tissue per total surface examined (FIG. 8B).
as §1
Later-stage cardiomyopathy caused by LMNA mutations is characterized by myocardial fibrosis (21,22). […] We quantified the myocardial fibrotic area of each animal by determining the ratio of fibrotic tissue (blue stained with Gomori's trichrome) to the total tissue area in each micrograph (FIG. 34C). Hearts from DMSO-treated Lmna^H222P/H222P mice had 15.01±0.9% fibrotic tissue per total surface examined (FIG. 34D).

Lmna^H222P/H222P mice [4] = assay: Deaths during the 4-week treatment protocol; settings: 4-week treatment from 16 weeks; PD98059 n=22, SP600125 n=29; DMSO 6 of n=28
Text: We assigned male Lmna^H222P/H222P mice 16 weeks of age to 3 different treatment arms (placebo DMSO, n=28; MEK1/2 inhibitor PD98059, n=22; JNK inhibitor SP600125, n=29) and examined parameters of cardiac structure and function at 20 weeks of age, after 4 weeks treatment. […] Lmna^H222P/H222P mice also have depressed cardiac contractility, with fractional shortening (FS) decreased by 20%-40% compared to Lmna^+/+ mice (13,15). Myocardial fibrosis occurs in Lmna^H222P/H222P mice at 16 weeks of age (16). At 20 weeks, LVEDD and LVESD increase further in Lmna^H222P/H222P mice and cardiac contractility also progressively deteriorates (16). During the 4-week treatment protocol, 6 mice in the DMSO group, 3 in the PD98059 group and 3 in the SP600125 group died prior to reaching 20 weeks of age for evaluation.

[5] = 16 weeks of age, treated 8 to 16 weeks
[6] = 3 mg/kg/day from 16 to 20 weeks of age

Row | SMILES | cardiac contractility (ejection fraction and LV fractional shortening) (Lmna^H222P/H222P mice [1]; 16 weeks of age, treated 8 to 16 weeks, compared with Lmna^+/+ mice) | development of LV dilatation (Lmna^H222P/H222P mice [1]; [5]) | EF (Lmna^H222P/H222P mice [1]) [%] | FS (Lmna^H222P/H222P mice [1]) [%] | IVSD (Lmna^H222P/H222P mice [1]) [mm] | LVEDD (Lmna^H222P/H222P mice [1]) [mm] | LVESD (Lmna^H222P/H222P mice [1]) [mm] | LVPW (Lmna^H222P/H222P mice [1]) [mm] | phosphorylation of JNK in hearts (JNK; [6]) | phosphorylation of JNK / JNK signaling in heart (JNK) | abnormal elongation of cardiomyocyte nuclei ([2]; 16 week-old mice, treated 8 to 16 weeks) | mean lengths of nuclei in cardiomyocytes compared to the DMSO-treated group [2] | area of fibrotic tissue per total surface examined [3] | mice that died prior to reaching 20 weeks of age (Lmna^H222P/H222P mice [4]) | phosphorylation of JNK in hearts (JNK; pilot study, 24 week-old mice treated from 19 weeks)
1 | COc1cccc(-c2cc(=O)c3ccccc3o2)c1N [PD98059, 2-(2-amino-3-methoxyphenyl)-4H-1-benzopyran-4-one] | normal cardiac contractility | prevented development of LV dilatation | 73.52 ± 4.68 | 41.55 ± 4.29 | 0.69 ± 0.06 | 3.12 ± 0.20 | 1.82 ± 0.16 | 0.77 ± 0.10 | not significantly inhibited | did not observe inhibition | prevented | significantly shorter | 4.48%±1% | 3 | 
2 | O=C1c2ccccc2-c2n[nH]c3cccc1c23 [SP600125, anthra[1,9-cd]pyrazol-6(2H)-one] |  | prevented development of LV dilatation | 69.24 ± 9.59 | 38.70 ± 7.38 | 0.72 ± 0.07 | 3.46 ± 0.27 | 2.30 ± 0.45 | 0.73 ± 0.08 | partially blocked | blocked |  | significantly shorter | 5.86%±0.4% | 3 | partially blocked
